The values below come from BindingDB's records for doi:10.1021/ml300172p (2012).

Assay [1] in a line: Inhibition of human Shh-induced mouse C3H10T1/2 cell differentiation after 48 hrs by alkaline phosphatase reporter assay. A general note: Reporter assays use an easily measured gene product as a stand-in for the process of interest.
A short description of assay [2]: Inhibition of Smo in mouse C3H10T1/2 cells assessed as inhibition of human Shh-induced cell differentiation after 48 hrs by alkaline phosphatase reporter assay.

In the case of `CC1=C2C[C@H]3[C@@H](CC=C4C[C@@H](O)CC[C@@]43C)[C@@H]2CC[C@]12O[C@@H]1C[C@H](C)CN[C@H]1[C@H]2C`, the IC50 (as a rule, the concentration that inhibits the measured activity by half) in assay [1] worked out at 0.6 µM.
As for `C[C@@H]1NC(=O)[C@H](CC(=O)NCc2ccc(Cl)cc2)C/C=C/CCC(=O)O[C@@H]1c1ccccc1`, the IC50 in assay [2] turned out to be 15 µM.
Same read-out and setting: to `C[C@H]1NC(=O)[C@H](CC(=O)NCc2ccc(Cl)cc2)C/C=C/CCC(=O)O[C@@H]1c1ccccc1` belongs 11 µM.
On the same count and under the same terms, to `O=C(C[C@@H]1C/C=C/CCC(=O)OC[C@@H]2CCCN2C1=O)NCc1ccc(Cl)cc1` belongs 15 µM.
Still for that read-out and setting: to `O=C(C[C@@H]1C/C=C/CCC(=O)N[C@H](c2ccccc2)COC1=O)NCc1ccc(Cl)cc1` belongs 5 µM; to `O=C(C[C@@H]1C/C=C/CCC(=O)N[C@@H]2c3ccccc3C[C@@H]2OC1=O)NCc1ccc(Cl)cc1`, over 25 µM; to `C[C@H]1[C@@H](c2ccccc2)OC(=O)CC/C=C/C[C@@H](CC(=O)NCc2ccc(Cl)cc2)C(=O)N1C`, 8 µM.
For the compound `O=C(C[C@@H]1C/C=C/CCC(=O)N[C@@H](c2ccccc2)COC1=O)NCc1ccc(Cl)cc1`, in assay [2], the IC50 came out at 20 µM.
Same read-out and setting: to `C[C@H]1C/C=C/C[C@@H](CC(=O)NCc2ccc(Cl)cc2)C(=O)OC[C@@H](c2ccccc2)NC1=O` belongs 8 µM.
Regarding `O=C(C[C@@H]1C/C=C/C[C@H](Cc2ccccc2)C(=O)N[C@H](c2ccccc2)COC1=O)NCc1ccc(Cl)cc1`, the IC50 in assay [2] was found to be 6 µM.
Still for that read-out and setting: to `CC(C)N[C@H]1C/C=C/C[C@@H](CC(=O)NCc2ccc(Cl)cc2)C(=O)NC[C@@H](c2ccccc2)OC1=O` belongs over 25 µM; to `C[C@H]1C/C=C\C[C@@H](CC(=O)NCc2ccc(Cl)cc2)C(=O)OC[C@@H](c2ccccc2)NC1=O`, 4 µM; to `C[C@H]1[C@@H](c2ccccc2)OC(=O)CCCCC[C@@H](CC(=O)NCc2ccc(Cl)cc2)C(=O)N1C`, 11 µM.
As to `C=CCCC(=O)O[C@@H](CNC(=O)[C@@H](CC=C)CC(=O)NCc1ccc(Cl)cc1)c1ccccc1`, in assay [2], the IC50 is over 25 µM.
Still for that read-out and setting: to `C[C@@H]1C/C=C/CCC(=O)N[C@H](c2ccccc2)COC1=O` belongs over 25 µM; to `CC(=O)N[C@@H]1C/C=C/CCC(=O)N[C@H](c2ccccc2)COC1=O`, over 25 µM; to `CN1CCN(C(=O)C[C@@H]2C/C=C/CCC(=O)O[C@H](c3ccccc3)CNC2=O)CC1`, over 25 µM.
In the case of `O=C(C[C@@H]1C/C=C/CCC(=O)O[C@H](c2ccccc2)CNC1=O)NCCCC(F)(F)F`, the IC50 in assay [2] turned out to be 4 µM.
Same read-out and setting: to `CC(C)(C)OC(=O)C[C@@H]1C/C=C/CCC(=O)N[C@H](c2ccccc2)COC1=O` belongs 7 µM; to `CN1C[C@@H](c2ccccc2)OC(=O)CC/C=C/C[C@@H](Cc2ccc(Cl)cc2)C1=O`, 8 µM; to `O=C(C[C@@H]1C/C=C/CCC(=O)O[C@H](c2ccccc2)CNC1=O)NCc1cccc(Cl)c1`, 5 µM.
On the same count and under the same terms, to `O=C(CN1C/C=C/CCC(=O)N[C@H](c2ccccc2)COC1=O)NCc1ccc(Cl)cc1` belongs over 25 µM; to `O=C(C[C@@H]1C/C=C/CCC(=O)N[C@H](C2CCCCC2)COC1=O)NCc1ccc(Cl)cc1`, 5 µM; to `O=C(C[C@@H]1C/C=C/CCC(=O)N[C@H](Cc2ccccc2)COC1=O)NCc1ccc(Cl)cc1`, 4 µM.
Still for that read-out and setting: to `CCCC[C@@H]1COC(=O)[C@H](CC(=O)NCc2ccc(Cl)cc2)C/C=C/CCC(=O)N1` belongs over 10 µM.
With `CC(C)[C@@H]1COC(=O)[C@H](CC(=O)NCc2ccc(Cl)cc2)C/C=C/CCC(=O)N1`, the IC50 in assay [2] worked out at 23 µM.
Still for that read-out and setting: to `O=C(C[C@@H]1C/C=C/CCC(=O)N[C@H](c2ccc(F)cc2)COC1=O)NCc1ccc(Cl)cc1` belongs 5 µM; to `O=C(C[C@@H]1C/C=C/CCC(=O)N[C@H](c2ccc(Cl)cc2)COC1=O)NCc1ccc(Cl)cc1`, 0.6 µM.
The same measure, in the same setting: to `O=C(C[C@@H]1C/C=C/CCC(=O)OCCNC1=O)NCc1ccc(Cl)cc1` [(S,E)-N-(4-chlorobenzyl)-2-(5,12-dioxo-1-oxa-4-azacyclododec-8-en-6-yl)acetamide] belongs over 25 µM.
As for `O=C(C[C@@H]1C/C=C/CCC(=O)O[C@H](c2ccccc2)CNC1=O)NCc1ccc(Cl)cc1` [N-(4-chlorobenzyl)-2-((2R,6S,E)-5,12-dioxo-2-phenyl-1-oxa-4-azacyclododec-8-en-6-yl)acetamide], the IC50 in assay [1] was over 25 µM.
